Calls of active or inactive are those of the source. No cut-off for these calls is given here.
Experiments:
[1] = biological target: T1, Amine oxidase [copper-containing] 3 (Homo sapiens) (UniProt Q16853); test: Activity at recombinant human VAP-1 assessed as hydrogen peroxide generation rate per min/mg preincubated for 30 mins by Amplex Red assay relative to control
T1 sequence (whole entry): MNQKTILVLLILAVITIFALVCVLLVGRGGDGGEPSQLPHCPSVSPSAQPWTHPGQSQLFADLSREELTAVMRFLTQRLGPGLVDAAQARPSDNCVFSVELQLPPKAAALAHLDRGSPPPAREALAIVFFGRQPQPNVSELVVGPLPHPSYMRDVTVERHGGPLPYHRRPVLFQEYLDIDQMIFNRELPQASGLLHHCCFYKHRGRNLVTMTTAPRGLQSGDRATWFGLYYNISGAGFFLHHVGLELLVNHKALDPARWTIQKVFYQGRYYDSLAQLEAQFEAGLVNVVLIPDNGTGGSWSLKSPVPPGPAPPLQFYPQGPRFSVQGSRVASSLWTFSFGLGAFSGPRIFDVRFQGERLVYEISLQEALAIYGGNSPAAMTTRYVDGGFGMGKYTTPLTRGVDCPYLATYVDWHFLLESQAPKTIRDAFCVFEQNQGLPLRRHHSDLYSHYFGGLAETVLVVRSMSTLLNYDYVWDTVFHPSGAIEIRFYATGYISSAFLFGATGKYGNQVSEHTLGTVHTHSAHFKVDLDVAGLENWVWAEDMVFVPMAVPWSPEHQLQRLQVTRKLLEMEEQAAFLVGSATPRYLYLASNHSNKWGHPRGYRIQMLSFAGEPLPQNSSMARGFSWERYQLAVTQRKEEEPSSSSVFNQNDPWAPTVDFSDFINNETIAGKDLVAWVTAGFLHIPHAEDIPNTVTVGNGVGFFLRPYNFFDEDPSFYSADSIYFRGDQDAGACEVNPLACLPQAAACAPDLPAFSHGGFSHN

[2] = biological target: T1, Amine oxidase [copper-containing] 3 (Homo sapiens); test: Ratio of relative Vmax to Km for recombinant human VAP-1 assessed as hydrogen peroxide generation rate preincubated for 30 mins by Amplex Red assay relative to control
[3] = biological target: T1, Amine oxidase [copper-containing] 3 (Homo sapiens); test: Activity at recombinant human VAP-1 assessed as hydrogen peroxide generation rate preincubated for 30 mins by Amplex Red assay
[4] = biological target: T1, Amine oxidase [copper-containing] 3 (Homo sapiens); test: Activity at recombinant human VAP-1 assessed as hydrogen peroxide generation rate per min/mg using benzylamine as substrate at 200 uM preincubated for 30 mins by Amplex Red assay relative to control
[5] = biological target: T1, Amine oxidase [copper-containing] 3 (Homo sapiens); test: Ratio of relative Vmax to Km for recombinant human VAP-1 assessed as hydrogen peroxide generation rate using benzylamine as substrate at 200 uM preincubated for 30 mins by Amplex Red assay
Homo sapiens [6] = species: Homo sapiens; test: Selectivity ratio of Ki for recombinant human MAO-A to Ki for recombinant human MAO-B
Homo sapiens [7] = species: Homo sapiens; test: Selectivity ratio of Ki for recombinant human MAO-B to Ki for recombinant human MAO-A

fold change (FC) [1]	fold change (FC) [2]	Activity [3]	fold change (FC) [4]	fold change (FC) [5]	Ratio Ki (Homo sapiens [6])	Ratio Ki (Homo sapiens [7])	SMILES
0.71	0.87						NCCCOCCCCOCCCNCc1cccs1
		inactive	0.85	0.69			NCCCNCCCCNCCCNCc1cccnc1
			1	0.96			NCCCNCCCCNCCCN
1.88	80						NCCCCCCCCCCCCNCc1ccccc1
0.73	30						CN(CCCCCCCCCCCCN)Cc1ccccc1
		inactive	1.12	0.97			NCCCNCCCCNCCCNCc1ccc2ccccc2c1
		inactive	1	0.6	9.8		NCCCNCCCCNCCCNCc1cccs1
			0.77	0.66		1.7	NCCCNCCCCNCCCNCc1ccccc1
1.77	35						NCCCCCCCCCCCCNCc1cccs1
0.38	0.09						NCCCCCCCCNCCCNCc1cccs1
			0.89	0.35			c1ccc(CNCCCCCCCCCCCCNCc2ccccc2)cc1
			0.69	0.66		1.8	CN(CCCCCCCCCCCCN=C=S)Cc1ccccc1

Source: ChEMBL document CHEMBL3085760, “Novel polyamine analogues: from substrates towards potential inhibitors of monoamine oxidases” (Eur J Med Chem, 2013)
